Assay results from patent US20250144177A1 (Katholieke Universiteit Leuven, priority 2022, published 2025).
Non-standard residues stand in square brackets, D forms with d. Residues, ends and D or L forms follow the SMILES beside them. No end group written: not given here. Orn = NCCC[C@H](N)C(=O)O

Columns and labels:
cathepsin G [1] = test: 20 mM Tris-HCl+1 mM CaCl2 pH 7.4; final conc. Cathepsin G at 13 mU/litre; conditions: 37° C., up to 24 hours
plasmin [2] = test: 50 mM Tris-HCl 0.5 M NaCl PH 7.4; final plasmin conc. 50 μg/ml; conditions: 37° C., up to 24 hours
trypsin = test: 100 mM Tris-HCl pH 8.5; final trypsin (from Sigma) conc. 250 ng/ml; conditions: 37° C., up to 24 hours
plasmin [3] = target: plasmin (Homo sapiens, UniProt P00747); test: Resistance to proteolytic degradation by plasmin (nano-LC/MS); assay type: in vitro ADME; conditions: peptide 50 ng/ml, 37° C., plasmin 50 μg/ml, pH 7.4
Chain of plasmin (Homo sapiens, UniProt P00747) (P00747 581-810 limits assumed, species assumed): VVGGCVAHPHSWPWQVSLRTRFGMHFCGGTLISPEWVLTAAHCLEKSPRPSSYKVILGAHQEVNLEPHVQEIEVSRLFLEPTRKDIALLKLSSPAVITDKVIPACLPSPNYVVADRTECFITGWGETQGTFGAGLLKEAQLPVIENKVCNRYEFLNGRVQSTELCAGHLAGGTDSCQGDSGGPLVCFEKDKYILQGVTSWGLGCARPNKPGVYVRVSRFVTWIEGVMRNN
Chain of plasmin (Homo sapiens, UniProt P00747) (P00747 97-580 partner limits assumed, species assumed): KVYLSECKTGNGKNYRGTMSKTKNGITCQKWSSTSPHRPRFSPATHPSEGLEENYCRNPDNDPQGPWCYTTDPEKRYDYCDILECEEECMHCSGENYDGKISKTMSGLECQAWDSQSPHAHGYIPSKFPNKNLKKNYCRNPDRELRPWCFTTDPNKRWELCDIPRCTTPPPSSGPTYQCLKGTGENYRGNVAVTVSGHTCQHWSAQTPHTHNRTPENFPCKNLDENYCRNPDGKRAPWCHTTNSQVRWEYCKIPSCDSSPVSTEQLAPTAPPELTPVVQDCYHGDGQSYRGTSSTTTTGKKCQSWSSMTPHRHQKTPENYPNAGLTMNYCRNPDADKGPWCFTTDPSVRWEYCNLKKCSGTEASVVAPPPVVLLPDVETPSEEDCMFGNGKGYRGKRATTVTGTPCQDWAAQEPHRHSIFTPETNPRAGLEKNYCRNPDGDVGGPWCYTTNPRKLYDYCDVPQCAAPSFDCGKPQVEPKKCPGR
From the text: (§1) The following peptides were compared for resistance against proteolytic degradation: CXCL9 (74-103) with L-amino acids (=L-amino acid peptide); CXCL9 (74-103) with D-amino acids (=D-amino acid peptide) and Acetyl-OOOQONGOOHQOOOQQOVROSQRORQOOTT [SEQ ID NO:2] This is a peptide derived from CXCL9 (74-103) with an acetyl-group on the N-terminus, lysines replaced by ornithine and VL (at positions 88 and 89) replaced by QQ and serine (at position 97) also replaced by ornithine (=ornithine peptide).
(§2) Incubations were performed with peptides at 50 ng/ml and 37° C. for 5 minutes up to 24 hours with trypsin, plasmin or cathepsin G. After the incubation, the reaction was stopped through addition of trifluoroacetic acid (to reach a final pH<4) and purified by nano-LC with on-line detection of eluted peptides by mass spectrometry.
(§3) Sample buffer for incubations with plasmin: 50 mM Tris-HCl 0.5 M NaCl PH 7.4; final plasmin conc. 50 μg/ml Sample buffer for incubations with cathepsin G: 20 mM Tris-HCl+1 mM CaCl2 pH 7.4; final conc. Cathepsin G at 13 mU/litre.

[4] = Resistance to proteolytic degradation by cathepsin G (nano-LC/MS); assay type: in vitro ADME; conditions: cathepsin G (isolated protease); peptide 50 ng/ml, 37° C., cathepsin G 13 mU/litre, pH 7.4; after 4 h; read-out: degraded with cathepsin G
From the text: as §1, §2, §3

cathepsin G [5] = target: T1, cathepsin G (Homo sapiens, UniProt P08311); test: as above; assay type: in vitro ADME; conditions: peptide 50 ng/ml, 37° C., cathepsin G 13 mU/litre, pH 7.4
T1 sequence (P08311 21-244): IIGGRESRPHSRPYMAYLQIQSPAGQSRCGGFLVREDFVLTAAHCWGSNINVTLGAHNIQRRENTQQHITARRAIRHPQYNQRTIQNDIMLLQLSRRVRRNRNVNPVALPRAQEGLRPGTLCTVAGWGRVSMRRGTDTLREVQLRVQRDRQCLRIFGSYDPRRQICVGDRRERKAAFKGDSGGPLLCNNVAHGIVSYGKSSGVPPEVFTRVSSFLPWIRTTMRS
From the text: as §1, §2, §3

[6] = Resistance to proteolytic degradation by plasmin (nano-LC/MS); assay type: in vitro ADME; conditions: isolated enzyme plasmin; peptide 50 ng/ml, 37° C., plasmin 50 μg/ml, pH 7.4; after 4 h incubation; read-out: degraded with plasmin
From the text: as §1, §2, §3

K. pneumonia = conditions: preventive treatment / pre-treatment; cited from earlier work

**Q.** For Acetyl-OOOQONGOOHQOOOQQOVROSQRORQOOTT, which not cleaved (cathepsin G [1]) is on record?
**A.** The not cleaved was “no cleavage with cathepsin G after 5 min up to 4 h incubation”.

**Q.** Which not cleaved (plasmin [2]) does the source give for CXCL9 (74-103) with D-amino acids here?
**A.** Its not cleaved is “resistant to plasmin at incubations between 5 min and 8 hours”.

**Q.** And the not cleaved (trypsin)?
**A.** Its not cleaved is “fully resistant to trypsin at incubations from 5 min. up to 4 hours”.

**Q.** Which results are given for “KKKQKNGKKHQKKKVLKVRKSQRSRQKKTT [CXCL9 (74-103)]”?
**A.** degradation with plasmin (plasmin [3]; after 5 min): partial degraded; degradation with plasmin (plasmin [3]; after 30 minutes): fully degradation; metabolised at 4 h, 50 ng/ml [4]: > 90%; stability to cathepsin G (cathepsin G [5]; up to 2 h): stable

**Q.** What does the source list for `CC(=O)N[C@@H](CCCN)C(=O)N[C@@H](CCCN)C(=O)N[C@@H](CCCN)C(=O)N[C@@H](CCC(N)=O)C(=O)N[C@@H](CCCN)C(=O)N[C@@H](CC(N)=O)C(=O)NCC(=O)N[C@@H](CCCN)C(=O)N[C@@H](CCCN)C(=O)N[C@@H](Cc1c[nH]cn1)C(=O)N[C@@H](CCC(N)=O)C(=O)N[C@@H](CCCN)C(=O)N[C@@H](CCCN)C(=O)N[C@@H](CCCN)C(=O)N[C@@H](CCC(N)=O)C(=O)N[C@@H](CCC(N)=O)C(=O)N[C@@H](CCCN)C(=O)N[C@H](C(=O)N[C@@H](CCCNC(=N)N)C(=O)N[C@@H](CCCN)C(=O)N[C@@H](CO)C(=O)N[C@@H](CCC(N)=O)C(=O)N[C@@H](CCCNC(=N)N)C(=O)N[C@@H](CCCN)C(=O)N[C@@H](CCCNC(=N)N)C(=O)N[C@@H](CCC(N)=O)C(=O)N[C@@H](CCCN)C(=O)N[C@@H](CCCN)C(=O)N[C@H](C(=O)N[C@H](C(=O)O)[C@@H](C)O)[C@@H](C)O)C(C)C` [Ornithine peptide, Acetyl-OOOQONGOOHQOOOQQOVROSQRORQOOTT] (Ac-[Orn][Orn][Orn]Q[Orn]NG[Orn][Orn]HQ[Orn][Orn][Orn]QQ[Orn]VR[Orn]SQR[Orn]RQ[Orn][Orn]TT-OH; C-terminus assumed)?
**A.** metabolised at 4 h [6]: > 70%; cleavage after arginine with plasmin (plasmin [3]; after 5 min): < 10%; cleavage with cathepsin G (cathepsin G [5]; 5 min up to 4 h incubation): no cleavage

**Q.** What does the source list for `CC(C)C[C@@H](NC(=O)[C@H](NC(=O)[C@@H](CCCCN)NC(=O)[C@@H](CCCCN)NC(=O)[C@@H](CCCCN)NC(=O)[C@@H](CCC(N)=O)NC(=O)[C@@H](Cc1c[nH]cn1)NC(=O)[C@@H](CCCCN)NC(=O)[C@@H](CCCCN)NC(=O)CNC(=O)[C@@H](CC(N)=O)NC(=O)[C@@H](CCCCN)NC(=O)[C@@H](CCC(N)=O)NC(=O)[C@@H](CCCCN)NC(=O)[C@@H](CCCCN)NC(=O)[C@H](N)CCCCN)C(C)C)C(=O)N[C@H](CCCCN)C(=O)N[C@@H](C(=O)N[C@H](CCCNC(=N)N)C(=O)N[C@H](CCCCN)C(=O)N[C@H](CO)C(=O)N[C@H](CCC(N)=O)C(=O)N[C@H](CCCNC(=N)N)C(=O)N[C@H](CO)C(=O)N[C@H](CCCNC(=N)N)C(=O)N[C@H](CCC(N)=O)C(=O)N[C@H](CCCCN)C(=O)N[C@H](CCCCN)C(=O)N[C@@H](C(=O)N[C@@H](C(=O)O)[C@H](C)O)[C@H](C)O)C(C)C` [D-amino acid peptide] (H-[dK][dK][dK][dQ][dK][dN]G[dK][dK][dH][dQ][dK][dK][dK][dV][dL][dK][dV][dR][dK][dS][dQ][dR][dS][dR][dQ][dK][dK][dT][dT]-OH; N-terminus and C-terminus assumed)?
**A.** resistance to plasmin (plasmin [3]; between 5 min and 8 hours): resistant; metabolised at 24 h, 50 ng/ml (cathepsin G [5]; cathepsin G (isolated protease), after 24 h): 68%; degradation with cathepsin G (cathepsin G [5]; up to 8 h): less than 5%

B1: VAP-1/SSAO: an endothelial bound adhesion molecule with amine oxidase activity involved in neutrophil egress from the microvasculature (protein, UniProt Q16853 1-763, looked up)
Amine oxidase …: MNQKTILVLLILAVITIFALVCVLLVGRGGDGGEPSQLPHCPSVSPSAQPWTHPGQSQLFADLSREELTAVMRFLTQRLGPGLVDAAQARPSDNCVFSVELQLPPKAAALAHLDRGSPPPAREALAIVFFGRQPQPNVSELVVGPLPHPSYMRDVTVERHGGPLPYHRRPVLFQEYLDIDQMIFNRELPQASGLLHHCCFYKHRGRNLVTMTTAPRGLQSGDRATWFGLYYNISGAGFFLHHVGLELLVNHKALDPARWTIQKVFYQGRYYDSLAQLEAQFEAGLVNVVLIPDNGTGGSWSLKSPVPPGPAPPLQFYPQGPRFSVQGSRVASSLWTFSFGLGAFSGPRIFDVRFQGERLVYEISLQEALAIYGGNSPAAMTTRYVDGGFGMGKYTTPLTRGVDCPYLATYVDWHFLLESQAPKTIRDAFCVFEQNQGLPLRRHHSDLYSHYFGGLAETVLVVRSMSTLLNYDYVWDTVFHPSGAIEIRFYATGYISSAFLFGATGKYGNQVSEHTLGTVHTHSAHFKVDLDVAGLENWVWAEDMVFVPMAVPWSPEHQLQRLQVTRKLLEMEEQAAFLVGSATPRYLYLASNHSNKWGHPRGYRIQMLSFAGEPLPQNSSMARGFSWERYQLAVTQRKEEEPSSSSVFNQNDPWAPTVDFSDFINNETIAGKDLVAWVTAGFLHIPHAEDIPNTVTVGNGVGFFLRPYNFFDEDPSFYSADSIYFRGDQDAGACEVNPLACLPQAAACAPDLPAFSHGGFSHN
**Q.** Which bacterial load (K. pneumonia) does the source give for B1 here?
**A.** Its bacterial load is “increased”.

**Q.** What about the “neutrophil recruitment / migration” value (K. pneumonia) of the same molecule?
**A.** The value was “decreased”.
